Data published in the supplement of paper PMC10331698.
± gives the standard deviation of the averaged measurements.

Legend:
Test in all cases: level (log10 ratio to DMSO vehicle control); higher = higher biomarker level / cell amount than vehicle control
Settings in all cases: in DMSO
Heptafluorobutyramide = compound: NC(=O)C(F)(F)C(F)(F)C(F)(F)F [Heptafluorobutyramide]
Procedure: (§1)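 BioMAP Diversity Plus panel of 12 human primary cell co-culture systems (3C, 4H, LPS, SAg, BT, BF4T, BE3C, CASM3C, HDF3CGF, KF3CT, MyoF, Mphg). Compounds were added 1 h before stimulation and left for 24 h (MyoF 48 h; BT 72 h for soluble read-outs or 6 d for IgG). Biomarkers were read by ELISA, cytotoxicity by SRB, PBMC viability and proliferation by Alamar Blue. Each well value was divided by the mean of 8 DMSO control wells on the same plate and log10 transformed; duplicate blinded samples were tested at 4 concentrations.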

[1] = compound: CCN(CCO)S(=O)(=O)C(F)(F)C(F)(F)C(F)(F)C(F)(F)C(F)(F)C(F)(F)C(F)(F)C(F)(F)F [N-Ethyl-N-(2-hydroxyethyl)perfluorooctanesulfonamide]
Procedure: as §1

Perfluoropropanoic acid = compound: O=C(O)C(F)(F)C(F)(F)F [Perfluoropropanoic acid]
Procedure: as §1

[2] = compound: O=C(O)C(F)(F)OC(F)(F)C(F)(F)OC(F)(F)C(=O)O [Perfluoro-3,6-dioxaoctane-1,8-dioic acid]
Procedure: as §1

[3] = compound: OCCC(F)(F)C(F)(F)C(F)(F)C(F)(F)C(F)(F)C(F)(F)F [6:2 Fluorotelomer alcohol]
Procedure: as §1

Perfluoropentanoic acid = compound: O=C(O)C(F)(F)C(F)(F)C(F)(F)C(F)(F)F [Perfluoropentanoic acid]
Procedure: as §1

[4] = compound: FC(F)(F)C(F)(C(F)(F)F)C(F)(F)C(F)(F)CC1CO1 [3-(Perfluoro-3-methylbutyl)-1,2-propenoxide]
Procedure: as §1

Row | Test System | level (log10) (Heptafluorobutyramide; 6700 nM) | level (log10) (Heptafluorobutyramide; 20000 nM) | level (log10) (Heptafluorobutyramide; 60000 nM) | level (log10) ([1]; 6700 nM) | level (log10) ([1]; 20000 nM) | level (log10) (Perfluoropropanoic acid; 6700 nM) | level (log10) (Perfluoropropanoic acid; 20000 nM) | level (log10) (Perfluoropropanoic acid; 60000 nM) | level (log10) ([2]; 6700 nM) | level (log10) ([2]; 20000 nM) | level (log10) ([2]; 60000 nM) | level (log10) ([3]; 6700 nM) | level (log10) ([3]; 20000 nM) | level (log10) (Perfluoropentanoic acid; 6700 nM) | level (log10) (Perfluoropentanoic acid; 20000 nM) | level (log10) (Perfluoropentanoic acid; 60000 nM) | level (log10) ([4]; 6700 nM) | level (log10) ([4]; 20000 nM)
1 | BT:sIL-6 | 0.0565 ± 0.0078 | -0.013 ± 0.0071 | -0.0215 ± 0.046 | 0.078 ± 0.0014 | -0.049 ± 0.054 | 0.021 ± 0.023 | -0.0015 ± 0.0035 | 0.035 ± 0.024 | 0.018 ± 0.013 | -0.007 ± 0.0042 | -0.0375 ± 0.00071 | 0.0115 ± 0.032 | -0.038 ± 0.028 | -0.0355 ± 0.1 | 0.01 ± 0.051 | 0.022 ± 0.04 | 0.0275 ± 0.043 | -0.0215 ± 0.005
2 | 3C:HLA-DR | 0.005 ± 0.0099 | 0.008 ± 0.0057 | -0.007 ± 0.0028 | 0.013 ± 0.025 | -0.0625 ± 0.016 | -0.003 ± 0.0028 | 0.0035 ± 0.0035 | 0.011 ± 0.011 | 0.008 ± 0.018 | -0.037 ± 0.013 | -0.0065 ± 0.012 | 0.0095 ± 0.012 | -0.01 ± 0.021 | -0.0075 ± 0.0035 | 0.0015 ± 0.021 | 0.018 ± 0.037 | 0.0085 ± 0.00071 | 0.018 ± 0.018
3 | BE3C:CXCL9/MIG | 0.002 ± 0.0014 | 0.0015 ± 0.0092 | -0.006 ± 0.0028 | -0.006 ± 0.0028 | -0.0285 ± 0.0035 | -0.0005 ± 0.016 | 0.0035 ± 0.0078 | 0.0165 ± 0.023 | 0.0015 ± 0.0064 | -0.003 ± 0.0099 | 0.0015 ± 0.0021 | 0.01 ± 0.0057 | 0.001 ± 0.0057 | -0.0035 ± 0.0092 | -0.012 ± 0.013 | 0.007 ± 0.018 | -0.005 ± 0.0042 | -0.0035 ± 0.005
4 | BF4T:MMP-1 | 0.0065 ± 0.025 | 0.003 ± 0.031 | 0.003 ± 0.0071 | 0.015 | 0.0095 ± 0.0078 | 0.003 ± 0.0071 | 0.0035 ± 0.029 | 0.009 ± 0.033 | 0.0075 ± 0.0064 | 0.007 ± 0.027 | 0.0185 ± 0.032 | 0.0065 ± 0.005 | 0.014 ± 0.021 | 0 ± 0.014 | -0.005 ± 0.0057 | 0.0085 ± 0.0092 | -0.0115 ± 0.047 | 0.02 ± 0.067
5 | SAg:CXCL8/IL-8 | 0.015 ± 0.013 | 0.011 ± 0.017 | 0.0085 ± 0.021 | 0.0095 ± 0.025 | -0.167 ± 0.03 | -0.022 ± 0.0057 | 0.0065 ± 0.019 | 0.0415 ± 0.0078 | -0.006 ± 0.0085 | -0.0015 ± 0.0064 | 0.0155 ± 0.035 | -0.0035 ± 0.011 | 0.0035 ± 0.0021 | -0.012 ± 0.041 | -0.018 ± 0.044 | -0.013 ± 0.088 | 0.0035 ± 0.0021 | 0.013 ± 0.041
6 | 3C:SRB | -0.0235 ± 0.04 | -0.0095 ± 0.0078 | -0.007 ± 0.024 | -0.0815 ± 0.021 | -0.217 ± 0.011 | -0.0115 ± 0.0035 | -0.009 ± 0.0028 | -0.0065 ± 0.0021 | 0.0055 ± 0.0064 | -0.0055 ± 0.016 | -0.004 ± 0.0014 | -0.006 ± 0.023 | 0.004 ± 0.028 | -0.0115 ± 0.013 | 0.001 ± 0.014 | 0.007 ± 0.018 | 0.0045 ± 0.0064 | -0.01 ± 0.0057
7 | SAg:CD62E/E-Selectin | 0.0035 ± 0.023 | -0.008 ± 0.047 | -0.0065 ± 0.022 | 0.0625 ± 0.013 | 0.079 ± 0.016 | 0.004 ± 0.013 | -0.0205 ± 0.016 | 0.0425 ± 0.023 | 0.007 ± 0.0085 | 0.011 ± 0.0028 | 0.011 ± 0.021 | -0.0015 ± 0.0092 | 0.002 ± 0.027 | 0.0005 ± 0.0064 | -0.012 ± 0.013 | 0.0195 ± 0.025 | -0.0195 ± 0.019 | -0.012
8 | BF4T:MMP-3 | 0.0075 ± 0.0021 | -0.005 ± 0.02 | 0.0065 ± 0.012 | -0.0145 ± 0.025 | 0.0505 ± 0.023 | -0.018 ± 0.0028 | 0.0015 ± 0.026 | 0.0085 ± 0.028 | -0.001 ± 0.0028 | -0.004 ± 0.0028 | 0.031 ± 0.025 | -0.004 ± 0.0042 | -0.0055 ± 0.0035 | -0.015 ± 0.011 | -0.0145 ± 0.0092 | -0.0045 ± 0.04 | 0.0005 ± 0.018 | -0.011 ± 0.0028
9 | BF4T:tPA | -0.0065 ± 0.013 | 0.0015 ± 0.005 | 0.0135 ± 0.018 | 0.0595 ± 0.0064 | 0.067 ± 0.0028 | -0.006 ± 0.024 | 0.025 ± 0.047 | 0.037 ± 0.04 | -0.003 ± 0.0028 | -0.024 ± 0.018 | 0.0155 ± 0.059 | -0.0215 ± 0.032 | -0.0135 ± 0.021 | -0.0295 ± 0.005 | -0.0215 ± 0.029 | -0.009 ± 0.061 | 0.0135 ± 0.00071 | 0.0135 ± 0.0021
10 | BE3C:EGFR | -0.008 ± 0.0028 | -0.017 ± 0.011 | 0.004 ± 0.021 | -0.02 ± 0.0014 | -0.072 ± 0.0057 | -0.0175 ± 0.036 | 0.0065 ± 0.012 | 0.035 ± 0.035 | 0.0115 ± 0.015 | 0.005 ± 0.021 | 0.0195 ± 0.077 | 0.004 ± 0.051 | -0.0025 ± 0.049 | -0.0025 ± 0.021 | -0.011 ± 0.0057 | 0.004 ± 0.018 | -0.01 ± 0.013 | -0.023 ± 0.013
11 | BF4T:CD106/VCAM-1 | -0.006 ± 0.0014 | -0.013 ± 0.0085 | 0.021 ± 0.069 | -0.039 ± 0.0085 | -0.0615 ± 0.0092 | -0.021 ± 0.065 | 0.003 ± 0.072 | 0.026 ± 0.095 | -0.0385 ± 0.022 | -0.042 ± 0.0071 | 0.006 ± 0.071 | -0.0195 ± 0.042 | -0.0525 ± 0.028 | -0.0425 ± 0.036 | -0.046 ± 0.016 | 0.018 ± 0.04 | 0.0025 ± 0.03 | 0.0425 ± 0.032
12 | LPS:CXCL8/IL-8 | -0.01 ± 0.038 | -0.0025 ± 0.032 | 0.0115 ± 0.0078 | 0.039 ± 0.0042 | -0.003 ± 0.0028 | -0.013 ± 0.02 | -0.001 ± 0.0085 | -0.002 ± 0.0071 | 0.015 | 0.0085 ± 0.021 | 0.0385 ± 0.021 | 0.071 ± 0.038 | 0.039 ± 0.023 | -0.0075 ± 0.00071 | -0.0095 ± 0.022 | 0.0245 ± 0.052 | 0.0325 ± 0.043 | 0.045 ± 0.072
13 | 3C:CXCL8/IL-8 | 0.008 ± 0.0071 | -0.0035 ± 0.016 | 0.0105 ± 0.011 | 0.02 ± 0.044 | -0.0985 ± 0.1 | 0.007 ± 0.03 | -0.001 ± 0.02 | 0.0255 ± 0.047 | -0.015 ± 0.051 | -0.013 ± 0.034 | -0.007 ± 0.059 | -0.001 ± 0.0085 | -0.0105 ± 0.0092 | -0.0065 ± 0.0092 | -0.005 ± 0.027 | 0.03 ± 0.079 | -0.0065 ± 0.018 | 0.008 ± 0.014
14 | BF4T:PAI-I | -0.0025 ± 0.0021 | -0.014 ± 0.016 | 0.005 ± 0.027 | 0.014 ± 0.0014 | -0.0105 ± 0.00071 | -0.004 ± 0.023 | 0.01 ± 0.013 | 0.029 ± 0.044 | 0.0085 ± 0.013 | 0.007 ± 0.0099 | 0.0095 ± 0.012 | 0.013 ± 0.013 | 0.011 ± 0.0099 | -0.003 ± 0.0014 | -0.005 ± 0.0028 | 0.007 ± 0.011 | -0.0045 ± 0.013 | 0.0005 ± 0.016
15 | BE3C:HLA-DR | -0.0065 ± 0.005 | 0.0245 ± 0.012 | -0.009 ± 0.0099 | -0.0445 ± 0.013 | -0.115 ± 0.031 | -0.026 ± 0.0085 | -0.012 ± 0.024 | 0.016 ± 0.016 | -0.0025 ± 0.00071 | -0.02 ± 0.013 | 0.0085 ± 0.025 | 0.003 | 0.005 ± 0.02 | -0.0095 ± 0.018 | 0 ± 0.011 | 0.016 ± 0.033 | -0.0075 ± 0.005 | -0.003 ± 0.0085
16 | 4H:CD106/VCAM-1 | -0.004 ± 0.021 | -0.014 ± 0.025 | -0.0155 ± 0.015 | 0.116 ± 0.021 | 0.0765 ± 0.0021 | -0.0085 ± 0.011 | -0.0075 ± 0.00071 | 0 ± 0.014 | 0.01 ± 0.023 | -0.0125 ± 0.0078 | -0.001 ± 0.0042 | 0 ± 0.0057 | -0.002 ± 0.0057 | 0.002 ± 0.038 | 0.0125 ± 0.0021 | 0.024 ± 0.013 | 0.0245 ± 0.043 | 0.0215 ± 0.042
